# Measurements taken from patent US20220127297A1, “Novel Antibacterial 3"-Derivatives Of 4,6-Disubstituted 2,5-Dideoxystreptamine Aminoglycoside Antibiotics” (AGILeBiotics B.V., priority 2018, published 2022).
# Assays:
# Assay type in all cases: cell-based, Escherichia coli
# [1] = system: E. coli (APH(3′)IIIa); assay: MIC 50, broth micro-dilution, E. coli expressing APH(3′)IIIa
# Description: (§1) Plasmid transformation. Approximately 500 ng of the pET-9b(+) (Cat. No. 69432-3, Merck), pAT21-1 (provided by Prof. Dr. Patrice Courvalin, M.D., Pasteur Institute, France; prepared according to Trieu-Cuot et. al, Mol. Gen. Genet. 198(2), 348 (1985)), pBluescript::AAC(6′)-Ie/APH(2″)-Ia (provided by Prof. Dr. Sergei Vakulenko, M.D., University of Notre Dame, Ind., USA; prepared according to S. B. Vakulenko et. al., J. Biol. Chem. 287 (52), 43262 (2012)), pBlue_lpp_aacC3_rrnC and pSET152 (Cat. No. PVT3395, Life Science Market; prepared according to Bierman et al., Gene 116 (1), 43 (1992)) plasmids, encoding APH(3′)-Ia (SEQ ID NO:2), APH(3′)-IIIa (SEQ ID NO:3), AAC(6′)Ie-APH(2″)-Ia (SEQ ID NO:4), AAC(3)-III (SEQ ID NO:1), and AAC(3)-IV (SEQ ID NO:5) respectively, were individually incubated in a vial of competent cells for 15 min on ice. The cells were subsequently heated to 42° C. for 90 s, and cooled on ice for 1 min. After addition of 900 μL LB, the cells were incubated for 1 h at 37° C. and 200 rpm. Cells were plated on LB-agar supplemented with 50 μg/mL KanaA and incubated for 18 h at 37° C. The next day, a single colony was inoculated in 5 mL LB supplemented with 50 μg/mL and grown for 18 h at 37° C. and 200 rpm. A 200 μL sample of each culture was diluted with 200 μL of 40% v/v glycerol in water, and stored at −80° C. The plasmid was purified from the remaining culture using the Plasmid Miniprep kit. Plasmid DNA was investigated by Eurofins Genomics (Germany) to confirm the identity of the aminoglycoside resistance genes.
# (§2) 3.1 Against E. coli Strains
# (§3) Tested reference compounds. Amikacin sulfate (Cat. No. 01693, Chem-Impex), Gentamicin sulfate (Cat. No. G4918, Sigma Aldrich).
# (§4) Microbial strains. E. coli ATCC 25922, E. coli ATCC 25922/pET-9b(+), E. coli ATCC 25922/pAT21-1, E. coli ATCC 25922/pBluescript::AAC(6′)-Ie/APH(2″)-Ia, E. coli ATCC 25922/pBlue_lpp_aacC3_rrnC, E. coli ATCC 25922/pSET152.
# (§5) Culture media and equipment. BBL™ Mueller Hinton Broth 2 (Lot. BCBW1143, Cat. No. 70192, Sigma); Kanamycin A (Cat. No. A1493, AppliChem); 96-well deep well plate, 1 mL (Cat. No. 0030506.200, Eppendorf); Plate lids (Cat. No. 0030131.525, Eppendorf); 96-well plate, F-bottom (Cat. No. 781602, Brand; Incubator, Infors Multitron Pro); Laminar flow (Heraeus KS12); UV/VIS meter (Eppendorf BioPhotometer Plus); Platereader (Tecan Sunrise).
# (§6) Compound preparation. Compounds were prepared in MH2 media at a concentration of 5 mM and stored at 4° C. For testing, solutions of 128 μM were prepared in MH2. Out of these working solutions, 400 μL was transferred to wells in the first column of 96-well deep well plates. Each compound was transferred in triplicate. Plates were previously filled with 200 μL of MH2 media in all wells except for the wells in the first column. After compound and antibiotic addition, the compounds were serial two-fold diluted by transferring 200 μL from the first to the second column, then from the second to the third column and so on. Finally, 200 μL was removed from the last column.
# (§7) Inoculum preparation. Microorganisms used were all revived from 20% glycerol (40% v/v glycerol in water was diluted with MH2) storage at −80° C. by inoculating them in 5 mL MH2. inoculums of E. coli containing a plasmid were selected for by adding 50 μg/mL KanaA. The Inoculums were grown to an optical density (measured by UV/Vis spectroscopy) of 0.6-0.8 at 600 nm. Out of these suspensions, actual inoculums were prepared by diluting them to an optical density (OD) of 0.1 in MH2 media. From these inoculums, 200 μL was transferred to each well, resulting in a final compound concentration range of 64 μM-31.3 nM. All plates were incubated at 900 rpm and 70% rH for 18 h at 37° C.
# (§8) MIC determination. After 18 h of growth, 200 μL was transferred to a 96-well F-bottom plate. The optical density was determined by a plate reader at 600 nm, with 10 s shaking before reading. Triplicate measurements were averaged, and a growth curve was plotted in Microsoft Excel. […]
# [2] = system: E. coli (AAC(6′)Ie-APH(2″)Ia); assay: MIC 50, broth micro-dilution, E. coli expressing AAC(6′)Ie-APH(2″)Ia
# Description: as §1, §2, §3, §4, §5, §6, §7, §8
# [3] = system: E. coli (AAC(3)IV); assay: MIC 50, broth micro-dilution, E. coli expressing AAC(3)IV
# Description: as §1, §2, §3, §4, §5, §6, §7, §8
# [4] = Escherichia coli, ATCC25922, ATCC25922 harboring plasmid encoding APH(3′)IIIa
# [5] = Escherichia coli, ATCC25922, ATCC25922 harboring plasmid encoding AAC(6′)Ie-APH(2″)Ia
# [6] = Escherichia coli, ATCC25922, ATCC25922 harboring plasmid encoding AAC(3)IV
# [7] = ATCC25922 harboring plasmid encoding APH(3′)IIIa
# [8] = ATCC25922 harboring plasmid encoding AAC(6′)Ie-APH(2″)Ia
# [9] = ATCC25922 harboring plasmid encoding AAC(3)IV
Structure (SMILES),"MIC50 [1, 4] [µM]","MIC50 [2, 5] [µM]","MIC50 [3, 6] [µM]","MIC50 [1, 7] [µM]","MIC50 [2, 8] [µM]","MIC50 [3, 9] [µM]"
"N=C(NCCO)NC1[C@@H](O)C(OC2[C@@H](F)[C@H](O[C@H]3OC(CN)[C@@H](O)CC3N)C(N)C[C@H]2NC(=O)[C@@H](O)CCN)O[C@H](CO)[C@H]1O (some centres unmarked) [ABX5029, Tobra-AHB-F-Gua 2-hydroxy-ethyl]",0.5,0.5 to 1,2,–,–,–
"N=C(NCC1CCCO1)NC1[C@@H](O)C(OC2[C@@H](F)[C@H](O[C@H]3OC(CN)[C@@H](O)CC3N)C(N)C[C@H]2NC(=O)[C@@H](O)CCN)O[C@H](CO)[C@H]1O (some centres unmarked) [ABX5046, Tobra-AHB-F-Gua tetrahydrofuran-2-yl methyl]",0.5,0.5,1 to 2,–,–,–
"N=C(N)NC1[C@@H](O)C(OC2[C@@H](F)[C@H](O[C@H]3OC(CN)[C@@H](O)[C@H](O)C3N)C(N)C[C@H]2NC(=O)[C@@H](O)CCN)O[C@H](CO)[C@H]1O (stereo partly drawn) [ABX4004, 3′epi-KanaB-AHB-F-Gua]",–,–,–,1 to 2,2,4
"N=C(NCc1ccncc1)NC1[C@@H](O)C(OC2[C@@H](F)[C@H](O[C@H]3OC(CN)[C@@H](O)CC3N)C(N)C[C@H]2NC(=O)[C@@H](O)CCN)O[C@H](CO)[C@H]1O (some centres unmarked) [ABX5048, Tobra-AHB-F-Gua pyridin-4-yl methyl]",0.25,0.5,1 to 2,–,–,–
"NCC[C@H](O)C(=O)N[C@@H]1CC(N)[C@@H](O[C@H]2OC(CN)[C@@H](O)[C@@H](O)C2N)[C@H](O)C1OC1O[C@H](CO)[C@@H](O)C(N)[C@H]1O (stereo partly drawn) [ABX4002, 3′Epi-KanaB-AHB]",–,–,–,8,4 to 8,8 to 16
"N=C(NCC1CC1)NC1[C@@H](O)C(OC2[C@@H](F)[C@H](O[C@H]3OC(CN)[C@@H](O)CC3N)C(N)C[C@H]2NC(=O)[C@@H](O)CCN)O[C@H](CO)[C@H]1O (some centres unmarked) [ABX5027, Tobra-AHB-F-Gua cyclopropylmethyl]",0.25 to 0.5,0.5,2,–,–,–
"N=C(N)NC1C(O)[C@@H](CO)OC(OC2C(F)[C@H](O[C@H]3OC(CN)[C@@H](O)CC3N)C(N)C[C@H]2NC(=O)[C@@H](O)CCN)[C@@H]1O (some centres unmarked) [ABX5006, Tobra-AHB-F-Gua]",< 0.25,< 0.25,0.5 to 1,–,–,–
"N=C(N)NC1[C@@H](O)C(OC2[C@@H](O)[C@H](O[C@H]3OC(CN)[C@@H](O)CC3N)C(N)C[C@H]2NC(=O)[C@@H](O)CCN)O[C@H](CO)[C@H]1O (some centres unmarked) [ABX5005, Tobra-AHB-Gua]",–,–,–,2 to 4,2,1 to 2
"N=C(NC[C@@H]1CCCN1)NC1[C@@H](O)C(OC2[C@@H](F)[C@H](O[C@H]3OC(CN)[C@@H](O)CC3N)C(N)C[C@H]2NC(=O)[C@@H](O)CCN)O[C@H](CO)[C@H]1O (stereo partly drawn) [ABX5026, Tobra-AHB-F-Gua (S) pyrrolidine-2-yl-methyl]",0.25,0.25 to 0.5,0.5,–,–,–
"N=C(NCc1cnc[nH]1)NC1[C@@H](O)C(OC2[C@@H](F)[C@H](O[C@H]3OC(CN)[C@@H](O)CC3N)C(N)C[C@H]2NC(=O)[C@@H](O)CCN)O[C@H](CO)[C@H]1O (some centres unmarked) [ABX5050, Tobra-AHB-F-Gua imidazol-5-yl methyl]",1 to 2,1,2 to 4,–,–,–
"N=C(NC[C@@H]1CCNC1)NC1[C@@H](O)C(OC2[C@@H](F)[C@H](O[C@H]3OC(CN)[C@@H](O)CC3N)C(N)C[C@H]2NC(=O)[C@@H](O)CCN)O[C@H](CO)[C@H]1O (stereo partly drawn) [ABX5039, Tobra-AHB-F-Gua (R) pyrrolidine-3-ylmethyl]",0.25,0.25,1,–,–,–
"NCCC(O)C(=O)NC1CC(N)C(OC2OC(CN)C(O)C(O)C2N)C(O)C1OC1OC(CO)C(O)C(N)C1O (centres unmarked) [ABX4001, KanaB-AHB]",–,–,–,8 to 16,4 to 8,4
"N=C(N)NC1[C@@H](O)C(OC2[C@@H](O)[C@H](O[C@H]3OC(CN)[C@@H](O)[C@H](O)C3N)C(N)C[C@H]2NC(=O)[C@@H](O)CCN)O[C@H](CO)[C@H]1O (some centres unmarked) [ABX4009, KanaB-AHB-Gua]",–,–,–,64,2 to 4,8
"NCC[C@H](O)C(=O)N[C@@H]1C[C@H](N)[C@@H](O[C@H]2O[C@H](CN)[C@@H](O)[C@@H](O)[C@H]2O)[C@H](O)[C@H]1O[C@H]1O[C@H](CO)[C@@H](O)[C@H](N)[C@H]1O [ABX3002, 3′Epi-KanaA-AHB]",–,–,–,16 to 32,16,32
"N=C(N)NC1[C@@H](O)C(OC2[C@@H](F)[C@H](O[C@H]3OC(CN)[C@@H](O)[C@H](O)C3N)C(N)C[C@H]2NC(=O)[C@@H](O)CCN)O[C@H](CO)[C@H]1O (some centres unmarked) [ABX4006, KanaB-AHB-F-Gua]",–,1,2,4 to 8,–,–
"N=C(NC[C@H]1CNCCO1)NC1[C@@H](O)C(OC2[C@@H](F)[C@H](O[C@H]3OC(CN)[C@@H](O)CC3N)C(N)C[C@H]2NC(=O)[C@@H](O)CCN)O[C@H](CO)[C@H]1O (stereo partly drawn) [ABX5043, Tobra-AHB-F-Gua (R) morpholin-2-yl methyl]",0.25,0.25,1,–,–,–
"NCCC(O)C(=O)NC1CC(N)C(OC2OC(CN)C(O)C(O)C2O)C(F)C1OC1OC(CO)C(O)C(N)C1O (stereo not drawn) [ABX3005, 3′Epi-KanaA-AHB-F]",–,–,–,4 to 8,4,8 to 16
"CC(C)(C)CCNC(=N)NC1[C@@H](O)C(OC2[C@@H](F)[C@H](O[C@H]3OC(CN)[C@@H](O)CC3N)C(N)C[C@H]2NC(=O)[C@@H](O)CCN)O[C@H](CO)[C@H]1O (some centres unmarked) [ABX5025, Tobra-AHB-F-Gua 2-tBu-ethyl]",–,0.5,2,–,–,–
